Experimental data published in patent publication US20230016424A1, “HYBRID AMIDE DERIVATIVES OF AMPHOTERICIN B” (The Board of Trustees of the University of Illinois, priority 2019, published 2023).
Converted amounts (≈) assume the structure as drawn. “And” between values parts separate entries of the source, which are not always exact repeats. Identical values can stand only once.

Tests used:
Saksenaea sp. = test: MIC against moulds; type: cell-based; conditions: 4 isolates
CD-1 mice = type: in vivo; conditions: for Mouse single IV injection: mortality: 40 mpk
Description: Procedure: The experiment was performed using the commercial Fungizone and Ambisome. Compound BA was directly used after purification without any special treatment. […] . Female CD-1 mice were (3 per group; body weight 30 g each) injected with the drugs/compounds and monitored for 24 h for death or distress signs.
Compound BA was directly used after purification without any special treatment. […] . Female CD-1 mice were (3 per group; body weight 30 g each) injected with the drugs/compounds and monitored for 24 h for death or distress signs.

[1] = Liver microsome stability, summary for all species; type: in vitro ADME; conditions: Mouse, rat, dog, monkey, human: All species
Description: (§1) Working Compound solution: 10 uM in 50 mM potassium phosphate buffer with 9% MeOH and 1% DMSO
(§2) Microsome solution: working concentration 0.625 mg/ml
(§3) Stopping solution: Cold ACN with 200 ng/ml Tolbutamide and 200 ng/ml Labetalol (4° C.)
(§4) Procedure: In the well plates (T5, T10, T20, T30, T60, NCF60 (no cofactor 60)) 10 uL of the compound/control working solution was added (except T0 and matric blank) followed by microsome solution (80 uL) and the mixture was incubated at 37 C for about 10 mins. A solution of potassium phosphate (10 ul of 50 mM) was added to NCF60 well, incubated at 37 C and time counting started. After prewarming 10 ul of NADPH regenerating solution was added to each plate to start the reaction. At different time point 300 uL/well of stopping solution to terminate the reaction. The sampling plates were shaken for 10 mins and the centrifuged for 20 mins at 4000 rpm. The supernatant was half diluted with ultra pure water and the analyzed using LCMS.

Lomentospora prolificans = test: MIC against rare moulds resistant to AmB; type: cell-based; conditions: 6 isolates
KIM1, LCN2, TIMP1, SPP1 = test: Biomarkers of renal injury by RTPCR after IV injection; set-up: species or system mice; conditions: mouse, in vivo
CYP2C9 = CYP2C9 (Homo sapiens, UniProt P11712); test: CYP Inhibition; conditions: for P450 2C9 % Inhibition: 10 um, human liver microsome
Chain of CYP2C9 (P11712 whole entry): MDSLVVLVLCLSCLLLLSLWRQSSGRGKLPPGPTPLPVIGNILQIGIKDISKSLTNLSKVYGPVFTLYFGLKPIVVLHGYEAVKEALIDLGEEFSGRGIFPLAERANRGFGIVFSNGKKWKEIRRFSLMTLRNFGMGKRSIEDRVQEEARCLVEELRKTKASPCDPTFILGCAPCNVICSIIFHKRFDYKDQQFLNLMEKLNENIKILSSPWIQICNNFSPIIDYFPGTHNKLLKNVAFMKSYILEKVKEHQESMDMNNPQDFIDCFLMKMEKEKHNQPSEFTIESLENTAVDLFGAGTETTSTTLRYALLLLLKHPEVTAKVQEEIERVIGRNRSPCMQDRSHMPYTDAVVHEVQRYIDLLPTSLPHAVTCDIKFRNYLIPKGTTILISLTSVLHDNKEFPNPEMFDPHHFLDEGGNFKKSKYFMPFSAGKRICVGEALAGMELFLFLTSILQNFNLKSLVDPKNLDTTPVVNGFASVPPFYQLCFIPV
Description: (§5) The working solutions of the test compounds and the standard inhibitors were prepared in DMSO (100× final concentration). 20 ul of substrate solution (5 in 1 cocktail) was added to the wells followed by 2 ul test compound solution was added. 158 ul of human liver microsome (HLM) was added to all the wells of the incubated plate and warmed to 37° C. for 10 mins. 20 ul of NADPH cofactor solution was then added to all the wells of incubated plate and incubated at 37° C. for 10 mins. At the time point the reaction was quenched by adding 400 uL of cold stop solution. The samples were centrifuged at 4000 rpm for 20 mins to precipitate protein. 100 ul supernatant was diluted with 100 ul of ultra pure water and analyzed using LCMS.

CYP3A4 = CYP3A4 (Homo sapiens, UniProt P08684); test: CYP Inhibition; conditions: for P450 3A4 % Inhibition: 10 um, human liver microsome
Chain of CYP3A4 (P08684 whole entry): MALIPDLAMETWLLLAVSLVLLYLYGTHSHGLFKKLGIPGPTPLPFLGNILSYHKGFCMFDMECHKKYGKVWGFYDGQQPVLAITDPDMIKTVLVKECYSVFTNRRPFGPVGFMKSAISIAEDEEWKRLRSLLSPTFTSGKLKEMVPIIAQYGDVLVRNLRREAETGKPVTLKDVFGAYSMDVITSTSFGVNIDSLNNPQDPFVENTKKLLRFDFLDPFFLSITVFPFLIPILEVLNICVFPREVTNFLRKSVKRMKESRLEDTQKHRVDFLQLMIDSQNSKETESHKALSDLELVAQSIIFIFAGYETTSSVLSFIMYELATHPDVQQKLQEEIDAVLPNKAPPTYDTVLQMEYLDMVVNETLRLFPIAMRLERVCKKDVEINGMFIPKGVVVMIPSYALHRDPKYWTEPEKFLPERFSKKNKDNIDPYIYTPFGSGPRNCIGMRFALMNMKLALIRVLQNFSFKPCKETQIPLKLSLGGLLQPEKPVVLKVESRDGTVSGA
Description: as §5

CYP2D6 = CYP2D6 (Homo sapiens, UniProt P10635); test: CYP Inhibition; conditions: for P450 2D6 % Inhibition: 10 um, human liver microsome
Chain of CYP2D6 (P10635 whole entry): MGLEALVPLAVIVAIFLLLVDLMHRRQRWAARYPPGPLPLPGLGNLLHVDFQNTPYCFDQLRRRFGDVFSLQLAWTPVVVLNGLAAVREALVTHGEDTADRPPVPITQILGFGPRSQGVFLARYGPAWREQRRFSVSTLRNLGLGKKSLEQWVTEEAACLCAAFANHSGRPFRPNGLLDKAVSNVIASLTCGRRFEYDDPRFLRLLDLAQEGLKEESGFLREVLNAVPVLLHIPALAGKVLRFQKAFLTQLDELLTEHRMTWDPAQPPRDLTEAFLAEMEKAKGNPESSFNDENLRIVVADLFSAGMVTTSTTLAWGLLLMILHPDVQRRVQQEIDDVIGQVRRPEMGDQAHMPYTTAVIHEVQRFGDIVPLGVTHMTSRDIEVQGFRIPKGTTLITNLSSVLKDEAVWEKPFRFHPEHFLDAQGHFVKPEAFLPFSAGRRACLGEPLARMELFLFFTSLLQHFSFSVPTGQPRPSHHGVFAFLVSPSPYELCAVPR
Description: as §5

[2] = Liver Microsome stability (In Vitro Metabolism); type: in vitro ADME; conditions: for Remaining (T = NCF60 min): no cofactor 60 min
Description: as §1, §2, §3, §4

C. albicans SN250 = test: MIC; type: cell-based, Candida albicans
[3] = In vivo mouse pharmacokinetics, IV; set-up: species or system CD-1 mice
Description: The experiment was performed using the compounds synthesized in lab and purified by preparative HPLC (>91%). All the compounds were dissolved in D5W (5% dextrose in water) at for IV injection. Female CD-1 mice were (3 per group; body weight approx. 30 g each) injected with the compounds (as per planned dosage) and the blood samples were collected at different time points and the compound content was analysed using the following procedure.
An aliquot of […], IS solution (100 ng/mL Labetalol & 100 ng/mL Tolbutamide in ACN), the mixture was vortex-mixed well and centrifuged at 3900 rpm for 10 min, 4[…]. An aliquot of 90 μL supernatant was transferred to sample plate and mixed with 60 μL water, then the plate was shaken at 800 rpm for 10 min. 15.0 μL supernatant was injected for LC-MS/MS analysis.

C. tropicalis = test: MIC; type: cell-based
C. krusei = test: MIC; type: cell-based
C. glabrata = test: MIC; type: cell-based
A. fumigatus 1163 = test: MIC; type: cell-based
[4] = human, human liver microsomes, probe 5 in 1 substrate cocktail (substrates not named)

C[C@@H]1[C@H](O)[C@@H](C)/C=C/C=C/C=C/C=C/C=C/C=C/C=C/[C@H](OC2O[C@H](C)[C@@H](O)[C@H](N)[C@@H]2O)C[C@@H]2O[C@](O)(C[C@@H](O)C[C@@H](O)[C@H](O)CC[C@@H](O)C[C@@H](O)CC(=O)O[C@H]1C)C[C@H](O)[C@H]2C(=O)O (stereo partly drawn) [AmB, Amphotericin B]
MIC (Saksenaea sp.): 0.06 µM (≈ 0.0554 µg/mL) | Mouse single IV injection: mortality (CD-1 mice): 0/3 | half-life at 1 µM ([1]; liver microsomes, read-out: Liver microsome T1/2): > 2.42 h | MIC (Lomentospora prolificans; Lomentospora prolificans): > 16 µM | Renal toxicity biomarkers KIM1, LCN2, TIMP1, SPP1 (KIM1, LCN2, TIMP1, SPP1): elevated | inhibition at 10 min, 10 µM (CYP2C9; human, human liver microsomes, probe 5 in 1 substrate cocktail): 4.1% | inhibition at 10 min, 10 µM (CYP3A4; [4]): 8.1% | inhibition at 10 min, 10 µM (CYP2D6; [4]): 2.3% | CLint scaled at 1 µM ([2]; Dog liver microsomes): < 14 mL/min/kg | Remaining (T = 60 min) ([2]; Dog liver microsomes): 106% | half-life at 1 µM ([2]; Dog liver microsomes): > 2.42 h | microsomal CLint at 1 µM ([2]; Dog liver microsomes): < 9.6 µL/min/mg | Remaining (T = NCF60 min) ([2]; Dog liver microsomes): 94.7% | CLint scaled at 1 µM ([2]; Human liver microsomes): < 8.6 mL/min/kg | Remaining (T = 60 min) ([2]; Human liver microsomes): 100% | half-life at 1 µM ([2]; Human liver microsomes): > 2.42 h | microsomal CLint at 1 µM ([2]; Human liver microsomes): < 9.6 µL/min/mg | Remaining (T = NCF60 min) ([2]; Human liver microsomes): 104% | CLint scaled at 1 µM ([2]; Monkey liver microsomes): < 13 mL/min/kg | Remaining (T = 60 min) ([2]; Monkey liver microsomes): 142% | half-life at 1 µM ([2]; Monkey liver microsomes): > 2.42 h | microsomal CLint at 1 µM ([2]; Monkey liver microsomes): < 9.6 µL/min/mg | Remaining (T = NCF60 min) ([2]; Monkey liver microsomes): 105% | CLint scaled at 1 µM ([2]; Mouse liver microsomes): < 38 mL/min/kg | Remaining (T = 60 min) ([2]; Mouse liver microsomes): 106% | half-life at 1 µM ([2]; Mouse liver microsomes): > 2.42 h | microsomal CLint at 1 µM ([2]; Mouse liver microsomes): < 9.6 µL/min/mg | Remaining (T = NCF60 min) ([2]; Mouse liver microsomes): 93.1% | CLint scaled at 1 µM ([2]; Rat liver microsomes): < 17 mL/min/kg | Remaining (T = 60 min) ([2]; Rat liver microsomes): 121% | half-life at 1 µM ([2]; Rat liver microsomes): > 2.42 h | microsomal CLint at 1 µM ([2]; Rat liver microsomes): < 9.6 µL/min/mg | Remaining (T = NCF60 min) ([2]; Rat liver microsomes): 111%

CC1C=CC=CC=CC=CC=CC=CC=CC(OC2OC(C)C(O)C(N)C2O)CC2OC(O)(CC(O)CC(O)C(O)CCC(O)CC(O)CC(=O)OC(C)C(C)C1O)CC(O)C2C(=O)NCCO (stereo not drawn) [Compound BA]
MIC C. albicans SN250 (C. albicans SN250): 0.25 µM (≈ 0.242 µg/mL) | MIC (Saksenaea sp.): 0.34 µM (≈ 0.329 µg/mL) | Number of Mice Alive (CD-1 mice; 40 mg/kg IV, 24 h): 3/3 | Number of Mice Distress-Fee (CD-1 mice; 40 mg/kg IV, 24 h): 3/3 | Mouse single IV injection: mortality (CD-1 mice): 0/4 | Tolerability in mice (CD-1 mice; IV in D5W): Well-Tolerated | Liver microsome T1/2 [1]: >2.42 h | MIC (Lomentospora prolificans): >16 µM | P450 2C9 % Inhibition (CYP2C9): 18.7% | P450 3A4 % Inhibition (CYP3A4): 15.7% | P450 2D6 % Inhibition (CYP2D6): 2.74% and 2.77% | CL ([2]; Dog liver microsomes): <9.6 µL/min/mg | Remaining (T = 60 min) ([2]; Dog liver microsomes): 111% | T1/2 ([2]; Dog liver microsomes): >2.42 h | CL ([2]; Human liver microsomes): <9.6 µL/min/mg | Remaining (T = 60 min) ([2]; Human liver microsomes): 99.9% | T1/2 ([2]; Human liver microsomes): >2.42 h | CL ([2]; Monkey liver microsomes): <9.6 µL/min/mg | Remaining (T = 60 min) ([2]; Monkey liver microsomes): 108% | T1/2 ([2]; Monkey liver microsomes): >2.42 h | CL ([2]; Mouse liver microsomes): <9.6 µL/min/mg | Remaining (T = 60 min) ([2]; Mouse liver microsomes): 97.7% | T1/2 ([2]; Mouse liver microsomes): >2.42 h | CL ([2]; Rat liver microsomes): <9.6 µL/min/mg | Remaining (T = 60 min) ([2]; Rat liver microsomes): 115% | T1/2 ([2]; Rat liver microsomes): >2.42 h | In vivo PK AUC0-inf ([3]; 1 mg/kg IV): 7488] ng*hr/mL | In vivo PK Cl ([3]; 1 mg/kg IV): 2.24 mL/min/kg | In vivo PK T1/2 ([3]; 1 mg/kg IV): 6.87 h | In vivo PK AUC0-inf ([3]; 5 mg/kg IV): 26694 ng·h/mL | In vivo PK Cl ([3]; 5 mg/kg IV): 3.13 mL/min/kg | In vivo PK T1/2 ([3]; 5 mg/kg IV): 8.00 h

CC1C=CC=CC=CC=CC=CC=CC=CC(OC2OC(C)C(O)C(N)C2O)CC2OC(O)(CC(O)CC(O)C(O)CCC(O)CC(O)CC(=O)OC(C)C(C)C1O)CC(O)C2C(=O)NCCF (stereo not drawn) [Compound BM]
MIC C. tropicalis (C. tropicalis): 500 µM (≈ 485 µg/mL) | MIC (Saksenaea sp.): 0.34 µM (≈ 0.33 µg/mL) | Liver microsome T1/2 [1]: >2.42 h | MIC C. krusei (C. krusei): 1000 µM (≈ 969 µg/mL) | MIC (Lomentospora prolificans): >16 µM | MIC C. glabrata (C. glabrata): 250 µM (≈ 242 µg/mL) | MIC A. fumigatus 1163 (A. fumigatus 1163): 1000 µM (≈ 969 µg/mL) | P450 2C9 % Inhibition (CYP2C9): 89.1% | P450 3A4 % Inhibition (CYP3A4): 12.4% | P450 2D6 % Inhibition (CYP2D6): 2.1%
